# Reference: patent US11613538B2, “Method of inhibiting or reducing a viral infection” (PTC Therapeutics, Inc., priority 2009, dated 2023)
# Tested on: hypoxia-induced VEGF production in HeLa cells
# Test: cells
# Format: cell-based, human
# Conditions: Homo sapiens, HeLa
row,Structure (SMILES),EC50 [nM]
1,O[C@@H](COc1ccc([C@H]2c3[nH]c4ccc(Cl)cc4c3CCN2c2ncccn2)cc1)CN1CCCCC1 [Compound 1313],8 to 40
2,CC1(C)OC[C@H](CCOc2ccc([C@H]3c4[nH]c5ccc(Cl)cc5c4CCN3C(=O)OCC3CC3)cc2)O1 [Compound 1314],< 8
3,CC1(C)OC[C@H](CCOc2ccc([C@H]3c4[nH]c5ccc(Cl)cc5c4CCN3C(=O)OCC3CCC3)cc2)O1 [Compound 1315],< 8
4,CC1(C)OC[C@H](CCOc2ccc([C@H]3c4[nH]c5ccc(Cl)cc5c4CCN3C(=O)OC3CCCC3)cc2)O1 [Compound 1316],< 8
5,CC1(COc2ccc([C@H]3c4[nH]c5ccc(Cl)cc5c4CCN3C(=O)OCC3CC3)cc2)COC(C)(C)OC1 [Compound 1317],< 8
6,CC1(COc2ccc([C@H]3c4[nH]c5ccc(Cl)cc5c4CCN3C(=O)OCC3CCC3)cc2)COC(C)(C)OC1 [Compound 1318],< 8
7,CC1(COc2ccc([C@H]3c4[nH]c5ccc(Cl)cc5c4CCN3C(=O)OC3CCCC3)cc2)COC(C)(C)OC1 [Compound 1319],< 8
8,O=C(OC1CCCC1)N1CCc2c([nH]c3ccc(Cl)cc23)[C@@H]1c1ccc(OCC[C@H](O)CO)cc1 [Compound 1320],< 8
9,CC(CO)(CO)COc1ccc([C@H]2c3[nH]c4ccc(Cl)cc4c3CCN2C(=O)OC2CCCC2)cc1 [Compound 1321],< 8
10,O=C(OC1CCCC1)N1CCc2c([nH]c3ccc(Cl)cc23)[C@@H]1c1ccc(OC[C@H](O)CO)cc1 [Compound 1322],< 8
11,O=C(OC1CCCC1)N1CCc2c([nH]c3ccc(Cl)cc23)[C@@H]1c1ccc(OC[C@@H](O)CO)cc1 [Compound 1323],< 8
12,CCOC(=O)N1CCc2c([nH]c3ccc(Cl)cc23)[C@@H]1c1ccc(OCC(CC)(CO)CO)cc1 [Compound 1324],< 8
13,CCC(CO)(CO)COc1ccc([C@H]2c3[nH]c4ccc(Cl)cc4c3CCN2C(=O)OCC(C)C)cc1 [Compound 1326],< 8
14,CCC(CO)(CO)COc1ccc([C@H]2c3[nH]c4ccc(Cl)cc4c3CCN2C(=O)OC2CCCC2)cc1 [Compound 1327],< 8
15,O=C(Oc1ccc(Cl)cc1)N1CCc2c([nH]c3ccc(Cl)cc23)[C@H]1c1ccc(O)cc1 [Compound 1332],> 1000
16,CCOC(=O)C(=O)N1CCc2c([nH]c3ccc(Cl)cc23)C1c1ccc(OC)cc1 (centres unmarked) [Compound 1334],40 to 200
17,COc1ccc(C2c3[nH]c4ccc(Cl)cc4c3CCN2C(=O)C(=O)OC(C)C)cc1 (centres unmarked) [Compound 1338],8 to 40
18,CCCOC(=O)C(=O)N1CCc2c([nH]c3ccc(Cl)cc23)C1c1ccc(OC)cc1 (centres unmarked) [Compound 1339],8 to 40
19,CCOC(=O)N1CCc2c([nH]c3ccc(Br)cc23)C1c1ccc(OCC(O)CO)cc1 (centres unmarked) [Compound 1340],8 to 40
20,CC(C)OC(=O)N1CCc2c([nH]c3ccc(Br)cc23)C1c1ccc(OCC(O)CO)cc1 (centres unmarked) [Compound 1341],8 to 40
21,CC(C)COC(=O)N1CCc2c([nH]c3ccc(Br)cc23)C1c1ccc(OCC(O)CO)cc1 (centres unmarked) [Compound 1342],< 8
22,CCOC(=O)N1CCc2c([nH]c3ccc(Br)cc23)C1c1ccc(OCC[C@H](O)CO)cc1 (some centres unmarked) [Compound 1345],< 8
23,CC(C)OC(=O)N1CCc2c([nH]c3ccc(Br)cc23)C1c1ccc(OCC[C@H](O)CO)cc1 (some centres unmarked) [Compound 1346],< 8
24,CC(C)COC(=O)N1CCc2c([nH]c3ccc(Br)cc23)C1c1ccc(OCC[C@H](O)CO)cc1 (some centres unmarked) [Compound 1347],< 8

row,Structure (SMILES),EC50 [nM]
1,CC(C)OC(=O)N1CCc2c([nH]c3ccc(Br)cc23)C1c1ccc(OCC(C)(CO)CO)cc1 (centres unmarked) [Compound 1350],< 8
2,CC(C)COC(=O)N1CCc2c([nH]c3ccc(Br)cc23)C1c1ccc(OCC(C)(CO)CO)cc1 (centres unmarked) [Compound 1351],< 8
3,CCOC(=O)N1CCc2c([nH]c3ccc(Br)cc23)C1c1ccc(OCC(CC)(CO)CO)cc1 (centres unmarked) [Compound 1354],< 8
4,CCC(CO)(CO)COc1ccc(C2c3[nH]c4ccc(Br)cc4c3CCN2C(=O)OC(C)C)cc1 (centres unmarked) [Compound 1355],< 8
5,CCC(CO)(CO)COc1ccc(C2c3[nH]c4ccc(Br)cc4c3CCN2C(=O)OCC(C)C)cc1 (centres unmarked) [Compound 1356],< 8
6,CCOC(=O)N1CCc2c([nH]c3ccc(Cl)cc23)[C@@H]1c1ccc(OCC2(CO)COCOC2)cc1 [Compound 1359],8 to 40
7,CC(C)OC(=O)N1CCc2c([nH]c3ccc(Cl)cc23)[C@@H]1c1ccc(OCC2(CO)COCOC2)cc1 [Compound 1360],8 to 40
8,COC(=O)[C@H]1CCCN1CCCOc1ccc(C2c3[nH]c4ccc(Cl)cc4c3CCN2C(=O)Oc2ccc(Cl)cc2)cc1 (some centres unmarked) [Compound 1362],< 8
9,CCOC(=O)N1CCc2c([nH]c3ccc(Cl)cc23)C1c1cccc(OCCCN2CCN(C(C)=O)CC2)c1 (centres unmarked) [Compound 1363],40 to 200
10,CC(=O)N1CCN(CCCOc2cccc(C3c4[nH]c5ccc(Cl)cc5c4CCN3C(=O)Oc3ccc(F)cc3)c2)CC1 (centres unmarked) [Compound 1364],40 to 200
11,C=CCOc1ccc([C@H]2c3[nH]c4ccc(Cl)cc4c3CCN2C(=O)OCC2CC2)cc1 [Compound 1365],< 8
12,C=CCOc1ccc([C@H]2c3[nH]c4ccc(Cl)cc4c3CCN2C(=O)OCC2CCC2)cc1 [Compound 1366],< 8
13,O=C(OCC1CCC1)N1CCc2c([nH]c3ccc(Cl)cc23)[C@@H]1c1ccc(OCCCO)cc1 [Compound 1368],< 8
14,O=C(OCC1CC1)N1CCc2c([nH]c3ccc(Cl)cc23)[C@@H]1c1ccc(O)cc1 [Compound 1369],8 to 40
15,O=C(OCC1CCC1)N1CCc2c([nH]c3ccc(Cl)cc23)[C@@H]1c1ccc(O)cc1 [Compound 1370],8 to 40
16,COc1ccc([C@H]2c3[nH]c4ccc(Cl)cc4c3CCN2C(=O)OCC2CC2)cc1 [Compound 1371],8 to 40
17,COc1ccc([C@H]2c3[nH]c4ccc(Cl)cc4c3CCN2C(=O)OCC2CCC2)cc1 [Compound 1372],< 8
18,O=C(OCC1CC1)N1CCc2c([nH]c3ccc(Cl)cc23)[C@@H]1c1ccc(OCC[C@H](O)CO)cc1 [Compound 1373],< 8
19,O=C(OCC1CCC1)N1CCc2c([nH]c3ccc(Cl)cc23)[C@@H]1c1ccc(OCC[C@H](O)CO)cc1 [Compound 1374],< 8
20,CC(CO)(CO)COc1ccc([C@H]2c3[nH]c4ccc(Cl)cc4c3CCN2C(=O)OCC2CC2)cc1 [Compound 1375],< 8
21,CC(CO)(CO)COc1ccc([C@H]2c3[nH]c4ccc(Cl)cc4c3CCN2C(=O)OCC2CCC2)cc1 [Compound 1376],< 8
22,O=C(OCC1CC1)N1CCc2c([nH]c3ccc(Cl)cc23)[C@@H]1c1ccc(OC[C@H](O)CO)cc1 [Compound 1377],< 8
23,CC1(COC(=O)N2CCc3c([nH]c4ccc(Cl)cc34)[C@@H]2c2ccc(OC[C@H](O)CO)cc2)CC1 [Compound 1378],< 8
24,O=C(OCC1CCC1)N1CCc2c([nH]c3ccc(Cl)cc23)[C@@H]1c1ccc(OC[C@H](O)CO)cc1 [Compound 1379],< 8

row,Structure (SMILES),EC50 [nM]
1,O=C(OCC1CC1)N1CCc2c([nH]c3ccc(Cl)cc23)[C@@H]1c1ccc(OC[C@@H](O)CO)cc1 [Compound 1380],< 8
2,CC1(COC(=O)N2CCc3c([nH]c4ccc(Cl)cc34)[C@@H]2c2ccc(OC[C@@H](O)CO)cc2)CC1 [Compound 1381],< 8
3,O=C(OCC1CCC1)N1CCc2c([nH]c3ccc(Cl)cc23)[C@@H]1c1ccc(OC[C@@H](O)CO)cc1 [Compound 1382],< 8
4,CCC(CO)(CO)COc1ccc([C@H]2c3[nH]c4ccc(Cl)cc4c3CCN2C(=O)OCC2CC2)cc1 [Compound 1383],< 8
5,CCC(CO)(CO)COc1ccc([C@H]2c3[nH]c4ccc(Cl)cc4c3CCN2C(=O)OCC2(C)CC2)cc1 [Compound 1384],< 8
6,CCC(CO)(CO)COc1ccc([C@H]2c3[nH]c4ccc(Cl)cc4c3CCN2C(=O)OCC2CCC2)cc1 [Compound 1385],< 8
7,O=C(OCC1CCC1)N1CCc2c([nH]c3ccc(Cl)cc23)[C@@H]1c1ccc(OCC2(CO)COCOC2)cc1 [Compound 1386],8 to 40
8,CCOC(=O)CNC(=O)c1cccc(C2c3[nH]c4ccc(Cl)cc4c3CCN2C(=O)OCC)c1 (centres unmarked) [Compound 1387],40 to 200
9,CCOC(=O)N1CCc2c([nH]c3ccc(Cl)cc23)C1c1cccc(C(=O)NCC(=O)O)c1 (centres unmarked) [Compound 1388],> 1000
10,CCOC(=O)N1CCc2c([nH]c3ccc(Cl)cc23)C1c1cccc(C(=O)N(C)CC(=O)O)c1 (centres unmarked) [Compound 1389],> 1000
11,CCOC(=O)N1CCc2c([nH]c3ccc(Br)cc23)C1c1ccc(C(=O)N(C)CC(=O)O)cc1 (centres unmarked) [Compound 1390],> 1000
12,CCOC(=O)N1CCc2c([nH]c3ccc(Cl)cc23)C1c1ccc(OCCCOCCOC)cc1 (centres unmarked) [Compound 1396],> 1000
13,[H]/N=C(\N)NCCOc1ccc(C2c3[nH]c4ccc(Cl)cc4c3CCN2C(=O)OCC)cc1 (centres unmarked) [Compound 1397],40 to 200
14,CCOC(=O)N1CCc2c([nH]c3ccc(Cl)cc23)C1c1ccc(OCCNc2nccnn2)cc1 (centres unmarked) [Compound 1398],40 to 200
15,CCOC(=O)N1CCc2c([nH]c3ccc(Cl)cc23)C1c1ccc(OCCn2nc(N)cc2C)cc1 (centres unmarked) [Compound 1399],< 8
16,[H]/N=c1\scnn1CCOc1ccc(C2c3[nH]c4ccc(Cl)cc4c3CCN2C(=O)OCC)cc1 (centres unmarked) [Compound 1400],< 8
17,CCOC(=O)N1CCc2c([nH]c3ccc(Cl)cc23)C1c1ccc(OCCn2cc(C#N)c(N)n2)cc1 (centres unmarked) [Compound 1401],8 to 40
18,[H]/N=C(\N)NCCOc1ccc(C2c3[nH]c4ccc(Cl)cc4c3CCN2C(=O)OCC#CC)cc1 (centres unmarked) [Compound 1402],200 to 1000
19,[H]/N=c1\scnn1CCOc1ccc(C2c3[nH]c4ccc(Cl)cc4c3CCN2C(=O)OCC#CC)cc1 (centres unmarked) [Compound 1403],< 8
20,CC#CCOC(=O)N1CCc2c([nH]c3ccc(Cl)cc23)C1c1ccc(OCCn2cc(C(N)=O)c(N)n2)cc1 (centres unmarked) [Compound 1404],40 to 200
21,Cc1cc(NCCOc2ccc(C3c4[nH]c5ccc(Cl)cc5c4CCN3C(=O)OCC(C)C)cc2)on1 (centres unmarked) [Compound 1405],40 to 200
22,CC(C)COC(=O)N1CCc2c([nH]c3ccc(Cl)cc23)C1c1ccc(OCCOc2cc(N)n[nH]2)cc1 (centres unmarked) [Compound 1406],40 to 200
23,[H]/N=c1\scnn1CCOc1ccc(C2c3[nH]c4ccc(Cl)cc4c3CCN2C(=O)OCC(C)C)cc1 (centres unmarked) [Compound 1407],< 8
